Experimental findings from US11655239B2 (SHANGHAI INSTITUTE OF MATERIAL MEDICA, CHINESE ACADEMY OF …, priority 2019, dated 2023) are described below.

One assay concerns the target DDR2 (Homo sapiens (Human), UniProt Q16832). Briefly: DDR2 enzyme activity test (ELISA). The format is biochemical. The note with it: for inhibition at 0.1 µM: read-out: DDR2 Inhibition rate at 0.1 μM. The protocol:
The optical rotation and the inhibitory activity against DDR2 enzyme of the compounds S11-A and S11-B obtained by the resolution in Example 12, and the chirally synthesized compounds S11-A′ and S11-B′ in Example 13 were tested (referred to the operation in Effect example 1), and the results are shown in Table 3 below:
Detection method: Enzyme-linked immunosorbent assay (ELISA)
Test receptor tyrosine kinase: DDR2
The kinase used in the experiment was obtained by our laboratory using the insect baculovirus expression system to express and purify the recombinant protein containing the protein kinase region; polyglutamic acid-tyrosine peptide segment [Poly(Glu, Tyr) 4:1] and sodium vanadate were purchased from Sigma; the anti-phosphorylated monoclonal antibody PY99 was purchased from Santa Cruz; horseradish peroxidase labeled goat anti-murine secondary antibody was purchased from Calbiochem; ATP and OPD were purchased from Sangon Biotech (Shanghai) Co., Ltd.; the remaining reagents were purchased from Sinopharm Chemical Reagent Co., Ltd. The reaction ELISA plate (#2592) was purchased from Corning. The full-wavelength microplate reader for experiment reading was a product of Molecular Device, model: SpectraMax 190; the experimental water was distilled water produced by Sinopharm Group.
The compound was centrifuged at 12,000 g for 5 min, and DMSO was added to prepare a 10^-2M stock solution, which was vortexed evenly, then sonicated for 10 min and stored at −40° C. for later use. During the test, the compound was diluted with DMSO from the stock solution to 100 times the test concentration (the DMSO concentration in the system was 1%).
1) Enzyme reaction substrate Poly(Glu, Tyr) 4:1 was diluted to 20 μg/mL with potassium-free PBS (10 mM sodium phosphate buffer, 150 mM NaCl, pH 7.2-7.4), and the microtiter plate was coated with 125 μL/well and placed at 37° C. for 12-16 hours of reaction. The liquid in the well was discard. The plate was washed three times with T-PBS (potassium-free PBS containing 0.1% Tween-20, 200 μL/well), 5 minutes each time. The ELISA plate was dried in an oven at 37° C. for 1 to 2 hours.
2) Reaction buffer (50 mM HEPES pH 7.4, 50 mM MgCl2, 0.5 mM MnCl2, 0.2 mM Na3VO4, 1 mM DTT) diluted ATP solution (49 μL) was added to each well, 1 μL of the compound to be tested was added to each well, and then 50 μL of DDR2 kinase domain recombinant protein diluted in the reaction buffer was added to start the reaction. Two control wells without ATP were set in each experiment. The plate placed on a shaker (100 rpm) at 37° C. for 1 hour of reaction. The liquid in the well was discarded and the plate was washed three times with T-PBS.
3) Antibody PY99 dilution solution (the antibody was diluted 1:500 with T-PBS containing BSA 5 mg/mL) was added at 100 μL/well, and shaken on a shaker at 37° C. for 0.5 hour of reaction. The liquid in the well was discarded and the plate was washed three times with T-PBS.
4) Horseradish peroxidase labeled goat anti-murine secondary antibody dilution solution (the antibody is diluted 1:2000 with T-PBS containing BSA 5 mg/ml) was added at 100 μL/well, and shaken on a shaker at 37° C. for 0.5 hour of reaction. The liquid in the well was discarded and the plate was washed three times with T-PBS.
5) 2 mg/ml of OPD color developing solution [diluted with 0.1 M citric acid-sodium citrate buffer (pH=5.4) containing 0.03% H2O2] was added at 100 μL/well and reacted for 1 to 10 minutes at 25° C. in the dark.
6) 2M H2SO4 was added at 50 μL/well to stop the reaction, and a tunable wavelength microplate reader VERSAmax was used for reading at a wavelength of 490 nm.
The IC50 value was obtained by four-parameter regression using the software that came with the microplate reader.
On the technique in general: An ELISA detects its analyte on a solid surface through an enzyme-linked reagent.

The test system of assay [1] is pulmonary fibrosis induced by bleomycin in mice. The assay can be described thus: mRNA levels of fibrosis-related markers in lung tissue (qRT-PCR). The format is in vivo, mouse. The following applies: 30 mg/kg. The protocol: About 30 mg of cryopreserved lung tissue was weighed and homogenized and lysed by adding 200 μL of Trizol (Takara, 9109 #). The fluid after the lysis in the well was collected by the RNA sterilization-grade pipette tip and transferred to the corresponding sterile EP tube. […] of chloroform was added, shaken vigorously for 30 sec, and centrifuged for 15 minutes in a centrifuge at 4° C. at 12000 rpm. The upper aqueous layer was transferred to a new EP tube, an equal volume of isopropanol was used to precipitate the RNA in the aqueous phase, and the tube was allowed to stand at −20° C. for more than 1 hr. And then the tube was centrifuged for 15 min at 4° C. at 12000 rpm, and the supernatant was discarded. 75% ethanol was added to wash the RNA pellet, and then the tube was centrifuged for 15 min at 4° C. at 12000 rpm, and the supernatant was discarded. The tube was placed at room temperature for 10-20 min to dry the RNA pellet. 25-200 μL of RNase-free water was added for dissolution and stored at −80° C.
PrimeScript™ RT Master Mix (Takara, RR036A) was selected for mRNA reverse transcription. Please refer to the instructions for the system. In short, 1 μg of mRNA was added to a 20 μL system, mixed and then kept at a constant temperature in a 37° C. water bath for 15 minutes, and then the enzyme was inactivated at 85° C. for 5 seconds. After centrifugation, double distilled water was used to dilute 10 times.
Q-PCR technology used 2×SYBR Green qPCR Master Mix (B21202, Biomake), and the reaction system could be prepared according to the instruction (10 μL of 2×SYBGreen, 8.8 μL of cDNA template, 1.2 μL of 5 μM primer Mix). The reaction conditions are: pre-denaturation at 95° C. for 5 min, denaturation at 95° C. for 30 sec, annealing at 60° C. for 30 sec, and extension at 72° C. for 30 sec, the number of reaction cycles is 40 cycles.
The experiment used qRT-PCR technology to determine the mRNA levels of fibrosis-related markers in lung tissue.
The experimental method was the same as that for the evaluation of the mRNA levels of inflammatory cytokines.

The mark [2] stands for this setting: Table 3, chiral synthesis vs resolution, read-out: Molecular activity comparison (inhibitory activity against DDR2 enzyme).

Read-outs that look alike come from different tables or passages of the source.

For orientation: inhibition means the change of the read-out against control, counted positive when it falls.

DDR2, sequence (Q16832 563-849): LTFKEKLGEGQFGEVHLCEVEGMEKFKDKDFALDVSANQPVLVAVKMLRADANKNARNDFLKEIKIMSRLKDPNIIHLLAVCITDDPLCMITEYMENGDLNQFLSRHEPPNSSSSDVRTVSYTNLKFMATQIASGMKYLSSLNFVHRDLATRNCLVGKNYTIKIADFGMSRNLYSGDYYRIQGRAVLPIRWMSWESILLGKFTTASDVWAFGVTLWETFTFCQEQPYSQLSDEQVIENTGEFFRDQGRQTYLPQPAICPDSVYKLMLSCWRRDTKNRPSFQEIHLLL

On to `Cc1ccc(NC(=O)Nc2cccc(C(F)(F)F)c2)cc1-c1ccc2nc(Nc3cnn(C)c3)ncc2c1` [Compound S1, 1-(4-methyl-3-(2-((1-methyl-1H-pyrazol-4-yl)amino)quinazolin-6-yl)phenyl)-3-(3-(trifluoromethyl)phenyl)urea], for which, on DDR2 (read-out: DDR2 IC50), the IC50 is 6.6 ± 0.4 nM.
Still for that read-out and setting: as for `Cc1ccc(NC(=O)Nc2cc(C(C)(C)C)nn2-c2ccccc2)cc1-c1ccc2nc(Nc3cnn(C)c3)ncc2c1` [Compound S2, 1-(3-(tert-butyl)-1-phenyl-1H-pyrazol-5-yl)-3-(4-methyl-3-(2-((1-methyl-1H-pyrazol-4-yl)amino)quinazolin-6-yl)phenyl)urea], the figure is 9.7 ± 0.6 nM; as for `Cc1ccc(C(C)NC(=O)c2cccc(C(F)(F)F)c2)cc1-c1ccc2cnc(Nc3cnn(C)c3)nc2c1` (centres unmarked) [Compound S4, N-(1-(4-methyl-3-(2-((1-methyl-1H-pyrazol-4-yl)amino)quinazolin-7-yl)phenyl)ethyl)-3-(Trifluoromethyl)benzamide], 4.1 ± 0.1 nM.
Still for that read-out and setting: for `Cc1ccc(C(=O)NC(C)c2cccc(C(F)(F)F)c2)cc1-c1ccc2nc(Nc3cnn(C)c3)ncc2c1` (centres unmarked) [Compound S5, 4-Methyl-3-(2-((1-methyl-1H-pyrazol-4-yl)amino)quinazolin-6-yl)-N-(1-(3-(trifluoromethyl)phenyl)ethyl)benzamide] the value was 2.9 ± 0.8 nM; for `CCC(NC(=O)c1cccc(C(F)(F)F)c1)c1ccc(C)c(-c2ccc3nc(Nc4cnn(C)c4)ncc3c2)c1` (centres unmarked) [Compound S6, N-(1-(4-methyl-3-(2-((1-methyl-1H-pyrazol-4-yl)amino)quinazolin-6-yl)phenyl)propyl)-3-(trifluoromethyl)benzamide], 5 ± 0.5 nM; for `Cc1ccc(C(=O)NCc2cccc(C(F)(F)F)c2)cc1-c1ccc2nc(Nc3cnn(C)c3)ncc2c1` [Compound S7, 4-methyl-3-(2-((1-methyl-1H-pyrazol-4-yl)amino)quinazolin-6-yl)-N-(3-(trifluoromethyl)benzyl)benzamide], 1.3 ± 0.2 nM.
On the same count and under the same terms, as for `Cc1ccc(NC(=O)C(C)c2cccc(C(F)(F)F)c2)cc1-c1ccc2nc(Nc3cnn(C)c3)ncc2c1` (centres unmarked) [Compound S8, N-(4-methyl-3-(2-((1-methyl-1H-pyrazol-4-yl)amino)quinazolin-6-yl)phenyl)-2-(3-(trifluoromethyl)phenyl)propionamide], the figure is 2.2 ± 0.2 nM; as for `Cc1ccc(C(C)C(=O)Nc2cccc(C(F)(F)F)c2)cc1-c1ccc2nc(Nc3cnn(C4CC4)c3)ncc2c1` (centres unmarked) [Compound S9, 2-(3-(2-((1-cyclopropyl-1H-pyrazol-4-yl)amino)quinazolin-6-yl)-4-methylphenyl)-N-(3-(trifluoromethyl)phenyl)propionamide], 2.7 ± 0.1 nM.
With `Cc1ccc([C@H](C)NC(=O)c2cccc(C(F)(F)F)c2)cc1-c1ccc2nc(Nc3cnn(C4CC4)c3)ncc2c1` [Compound S11-A], the IC50 at DDR2 (setting [2]) was 5 ± 0.1 nM. In assay [1], the “reduction of expression (mRNA) of Collagen1-α1” value is “about 50%”, the “reduction of expression (mRNA) of TGF-β1” value is “about 50%” and the “reduction of expression (mRNA) of α-SMA” value is listed as “about 50%”.
Regarding `Cc1ccc([C@@H](C)NC(=O)c2cccc(C(F)(F)F)c2)cc1-c1ccc2nc(Nc3cnn(C4CC4)c3)ncc2c1` [Compound S11-B], the IC50 at DDR2 (setting [2]) was found to be 14.4 ± 2.1 nM.
As for `CC(C)c1ccc(C(=O)Nc2cccc(C(F)(F)F)c2)cc1-c1ccc2nc(Nc3cnn(C)c3)ncc2c1` [Compound S13, 4-isopropyl-3-(2-((1-methyl-1H-pyrazol-4-yl)amino)quinazolin-6-yl)-N-(3-(trifluoromethyl)phenyl)benzamide], the IC50 at DDR2 (read-out: DDR2 IC50) was 5.4 ± 0.4 nM.
With `Cn1cc(Nc2ncc3cc(-c4cc(C(=O)Nc5cccc(C(F)(F)F)c5)ccc4C4CC4)ccc3n2)cn1` [Compound S14, 4-cyclopropyl-3-(2-((1-methyl-1H-pyrazol-4-yl)amino)quinazolin-6-yl)-N-(3-(trifluoromethyl)phenyl)benzamide], at DDR2 (read-out: DDR2 IC50), the IC50 is 4.3 ± 0.7 nM.
On the same count and under the same terms, for `CC(C(=O)Nc1ccc(C2CC2)c(-c2ccc3nc(Nc4cnn(C5CC5)c4)ncc3c2)c1)c1cccc(C(F)(F)F)c1` (centres unmarked) [Compound S17, N-(4-cyclopropyl-3-(2-((1-cyclopropyl-1H-pyrazol-4-yl)amino)quinazolin-6-yl)phenyl)-2-(3-(trifluoromethyl)phenyl)propionamide] the value was 1.7 ± 0.3 nM; for `Cc1ccc(C(C)NC(=O)c2cccc(C(C)(C)C#N)c2)cc1-c1ccc2nc(Nc3cnn(C4CC4)c3)ncc2c1` (centres unmarked) [Compound S20, 3-(2-cyanopropane-2-yl)-N-(1-(3-(2-((1-cyclopropyl-1H-pyrazol-4-yl)amino)quinazolin-6-yl)-4-methylphenyl)ethyl)benzamide], 5.6 ± 0.3 nM; for `Cc1ccc(C(C)NC(=O)Nc2cccc(C(F)(F)F)c2)cc1-c1ccc2nc(Nc3cnn(C)c3)ncc2c1` (centres unmarked) [Compound S27, 1-(1-(4-methyl-3-(2-((1-methyl-1H-pyrazol-4-yl)amino)quinazolin-6-yl)phenyl)ethyl)-3-(3-(trifluoromethyl)phenyl)urea], 8.7 ± 1.1 nM.
Same read-out and setting: as for `C[C@@H](NC(=O)c1ccc(C2CC2)c(-c2ccc3cnc(Nc4cnn(C5CC5)c4)nc3c2)c1)c1cccc(C(F)(F)F)c1` [Compound S37], the figure is 13.5 ± 7.2 nM.
On to `CCN1CCN(Cc2cc(C(C)NC(=O)c3ccc(C4CC4)c(-c4ccc5nc(Nc6cnn(C7CC7)c6)ncc5c4)c3)cc(C(F)(F)F)c2)CC1` (centres unmarked) [Compound S43], for which the inhibition at 0.1 µM at DDR2 came to 57.6%.
The same measure, in the same setting: as for `Cc1nc(C(C)NC(=O)c2ccc(C3CC3)c(-c3ccc4nc(Nc5cnn(C6CC6)c5)ncc4c3)c2)cs1` (centres unmarked) [Compound S44], the figure is 72.9%; as for `CC(NC(=O)c1ccc(C2CC2)c(-c2ccc3nc(Nc4cnn(C5CC5)c4)ncc3c2)c1)c1cc(C(F)(F)F)ccn1` (centres unmarked) [Compound S45], 68.4%; as for `O=C(NC1CCc2c1cccc2C(F)(F)F)c1ccc(C2CC2)c(-c2ccc3nc(Nc4cnn(C5CC5)c4)ncc3c2)c1` (centres unmarked) [Compound S46], 47.7%.
